Results published in patent US20140154721A1, “Cellulase Assay” (Megazyme IP Limited, priority 2012, published 2014).
“Also recorded” adds a separate entry of the source.

Legend:
[1] = tested on: cellulase from Trichoderma longibrachiatum; experiment: Cellulase assay: release of C1PNP/PNP (absorbance 400 nm) from substrates, with and without β-glucosidase; assay type: biochemical; settings: 40° C., pH 4.5; for sensitivity of the assay (rate of release of C1PNP) in the presence vs absence of β-glucosidase: absorbance 400 nm vs. time, FIGS. 3a-3b
From the text: FIGS. 3a-3b are graphs of absorbance (400 nm) vs. time, for the action of a cellulase from Trichoderma longibrachiatum on. […] In contrast, for BC1PNP-G3 (3b) the endo-acting Trichoderma cellulase cleaves the glycosidic bond either between two glucosyl units or between the bond between the terminal glucosyl unit and C1PNP releasing an end-blocked cello-oligosaccharide and a non-blocked C1PNP-cello-oligosaccharide fragment, or free C1PNP. The β-glucosidase in the assay mixture immediately hydrolyses the non-blocked C1PNP-cello-oligosaccharide released, giving D-glucose and free C1PNP.
FIG. 4 is a graph of absorbance (400 nm) vs. time, for the action of a cellulase from Trichoderma longibrachiatum (1500 milli-International Units on CMC-4M per assay) on p-nitrophenyl cellobiose (PNP-G2), 2-chloro-4-nitrophenyl cellobiose (C1PNP-G2), end-blocked p-nitrophenyl cellobiose (BPNP-G2) and end-blocked 2-chloro-4-nitrophenyl cellobiose (BC1PNP-G2) in the absence of added β-glucosidase at 40° C. and pH 4.5 using an assay of the invention (embodiment Two).
(§1) Prepare substrate solution by dissolving end-blocked p-nitrophenyl cello-oligosaccharides or end-blocked 2-Cl-4-nitrophenyl cello-oligosaccharide (DP 2, 3 or 4) in 2 mL of dimethyl sulphoxide to obtain a concentration of 12.5 mM. Cool this solution in ice and add 3 mL of 170 mM potassium chloride solution with mixing, to give a final substrate concentration of 5 mM. Prepare this solution fresh before use, or warm to 40° C. before use to ensure complete dissolution.
Add an aliquot (0.1 mL) of the substrate solution to the bottom of a 16×120 mm glass test tube, followed by 0.05 mL of pure β-glucosidase (Second embodiment only). Incubate tubes for 2 min at the selected reaction temperature and initiate the reaction by adding 0.1 mL of sample solution containing cellulase in 200 mM buffer solution of the desired pH (usually in the range of 4.5 to 8.0). […] Mix the tube contents and measure the absorbance at 400 nm against a reaction blank.

[2] = tested on: cellulase from Aspergillus niger; experiment: Cellulase assay: release of C1PNP (absorbance 400 nm) from end-blocked substrates, with and without β-glucosidase; assay type: biochemical; settings: 40° C., pH 4.5; absorbance 400 nm vs. time; FIGS. 2a-2b
Method: FIGS. 2a-2b are graphs of absorbance (400 nm) vs. time, for the action of a cellulase from Aspergillus niger on. […] FIG. 2b shows_end-blocked 2-chloro-4-nitrophenyl cellotriose (BC1PNP-G3) (700 milli-International Units per assay) at 40° C. and pH 4.5 in the presence and the absence of β-glucosidase using an assay of the invention. […] Note: One International Unit of enzyme activity as defined is the amount of enzyme required to release one micromole of reducing sugar equivalents per minute from carboxymethyl cellulose 4M (CMC-4M) (10 mg/mL) in 100 mM sodium acetate buffer (pH 4.5).
as §1
Add an aliquot (0.1 mL) of the substrate solution to the bottom of a 16×120 mm glass test tube, followed by 0.05 mL of pure β-glucosidase (Second embodiment only). […] Mix the tube contents and measure the absorbance at 400 nm against a reaction blank.

Row | Substance | sensitivity of the assay (rate of release of C1PNP) in the presence vs absence of β-glucosidase [1] | sensitivity of the assay (rate of release of C1PNP) in the presence vs absence of β-glucosidase [2] | rate of hydrolysis by Trichoderma cellulase (comparison of substrates) ([1]; absence of added β-glucosidase, 1500 milli-International Units per assay, FIG. 4)
1 | end-blocked 2-chloro-4-nitrophenyl cellotriose [BC1PNP-G3] | greater sensitivity of the assay in the presence of added β-glucosidase | same sensitivity of the assay; also recorded: no increase in the colour formed | 
2 | end-blocked p-nitrophenyl cellobiose [BPNP-G2] |  |  | slower rate than BC1PNP-G2
3 | end-blocked 2-chloro-4-nitrophenyl cellobiose [BC1PNP-G2] | same sensitivity of the assay; also recorded: the same result is seen | same sensitivity of the assay; also recorded: no increase in the colour formed | 
